Earlier results on one compound are cited in US20200306268A1, “VITAMIN COMPOSITION” (Tempus Bio Technologies LLC, priority 2019, published 2020).

For the compound `C=C1CC[C@H](O)C/C1=C/C=C1\CCC[C@]2(C)[C@@H]([C@H](C)CCCC(C)C)CC[C@@H]12` [vitamin D3, (3β,5Z,7E)-9,10-secocholesta-5,7,10(19)-trien-3-ol], where the note is “MCT oil”, the “solubility in MCT oil” value is “very soluble”. The solubility in water result (water) was “not soluble”.
